Data on 35 compounds can be found in patent US20070191336A1 (priority 2003, published 2007).

The structures appear in SMILES notation.

For this assay, the target named is T1, phospho p-38 alpha kinase (Homo sapiens, UniProt Q16539).
T1 construct: purchased Panvera
Put plainly: P-38 alpha kinase assay (spectrophotometric, pyruvate kinase/lactate dehydrogenase coupled). It counts as biochemical. The note with it: for IC50: Table 3, rates from […] to 2 h time frame; for inhibition at 10 µM / inhibition at 1 µM / inhibition at 0.1 µM: read-out: % Inhibition @ concentration, Table 3. The procedure: In this assay, the oxidation of NADH was continuously measured spectrophometrically. […] The reaction was initiated by adding ATP. The absorption at 340 nm was monitored continuously for up to 4 hours at 30° C. on Polarstar Optima plate reader (BMG). The kinase activity (reaction rate) was calculated from the slope at the time frame from 1.5 h to 2 h.
For inhibition determinations, test compounds were incubated with the reaction mixture for ˜5 min before adding ATP to start the reaction. […] IC50 values were calculated from a series of % inhibition values determined at a range of concentrations of each inhibitor using Prism to process the data and fit inhibition curves. Generally, the rates obtained at the time frame of 1.5 h to 2 h were used for these calculations.

T1 sequence (Q16539 whole entry): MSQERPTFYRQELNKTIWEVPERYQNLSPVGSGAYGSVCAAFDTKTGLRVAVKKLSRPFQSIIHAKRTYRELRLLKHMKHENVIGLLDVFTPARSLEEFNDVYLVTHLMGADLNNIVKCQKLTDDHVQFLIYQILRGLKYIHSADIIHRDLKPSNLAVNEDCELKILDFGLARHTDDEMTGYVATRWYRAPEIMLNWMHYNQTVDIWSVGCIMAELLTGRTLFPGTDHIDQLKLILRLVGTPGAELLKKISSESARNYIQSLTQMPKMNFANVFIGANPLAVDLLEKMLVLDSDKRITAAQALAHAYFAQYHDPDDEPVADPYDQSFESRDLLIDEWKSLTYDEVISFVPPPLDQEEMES

The IC50 is the concentration that inhibits the measured activity by half. A lower IC50 goes with greater potency. Turning to `CC(C)(C)c1cc(NC(=O)Nc2cccc(C(F)(F)F)c2)n(-c2cccc(C#N)c2)n1` [Example 361], half-maximal inhibition (IC50) required 870 nM. That is a sub-micromolar value. The same measure, in the same setting: the value for `CC(C)(C)c1cc(NC(=O)Nc2ccccc2F)n(-c2cccc(CCC(=O)O)c2)n1` [Example 363, 3-(3-{3-t-butyl-5-[3-(2-fluorophenyl)ureido]-11H-pyrazol-1-yl}-phenyl)propionic acid] was 190 nM; that for `CCOC(=O)CCc1cccc(-n2nc(C(C)(C)C)cc2NC(=O)Nc2cccc(Cl)c2Cl)c1` [Example 364, 3-(3-{3-t-butyl-5-[3-(2,3-dichlorophenyl)ureido]-1H-pyrazol-1-yl}phenyl)propionic acid ethyl ester] was 10 nM.

The compound `CC(C)(C)c1cc(NC(=O)Nc2cccc(Cl)c2Cl)n(-c2cccc(CCC(=O)O)c2)n1` [Example 365, 3-(3-{3-t-Butyl-5-[3-(2,3-dichloro-phenyl)ureido]-1H-pyrazol-1-yl}-phenyl)propionic acid] registered a concentration for half-maximal inhibition (IC50) of 7 nM. As for `CCOC(=O)CCc1cccc(-n2nc(C(C)(C)C)cc2NC(=O)Nc2cccc3cccnc23)c1` [Example 366, 3-(3-{3-t-butyl-5-[3-(quinolin-8-yl)ureido]-1H-pyrazol-1-yl}phenyl)-propionic acid ethyl ester], the inhibition at 10 µM came to 53%. On the same count and under the same terms, the same measure for `CC(C)(C)c1cc(NC(=O)Nc2cccc3cccnc23)n(-c2cccc(CCC(=O)O)c2)n1` [Example 367, 3-(3-{3-t-butyl-5-[3-(quinolin-8-yl)ureido]-1H-pyrazol-1-yl}phenyl)-propionic acid]: 85%.

In turn, `CN(C)CCc1cccc(-n2nc(C(C)(C)C)cc2NC(=O)Nc2ccc(Cl)cc2)c1` [Example 372, 1-{3-t-butyl-1-[3-(2-(dimethylamino)ethyl]phenyl}-1H-pyrazol-5-yl)-3-(4-chlorophenyl)urea] yielded an IC50 of 1460 nM. The same measure, in the same setting: the same measure for `CC(C)(C)c1cc(NC(=O)Nc2cccc(Cl)c2Cl)n(-c2cccc(CCN)c2)n1` [Example 374, 1-{1-[3-(2-aminoethyl)phenyl]-3-t-butyl-1H-pyrazol-5-yl}-3-(2,3-dichlorophenyl)urea]: 37 nM; for `CC(C)(C)c1cc(NC(=O)Nc2cccc(Br)c2)n(-c2cccc(CCN)c2)n1` [Example 376, 1-{1-[3-(2-aminoethyl)phenyl]-3-t-butyl-1H-pyrazol-5-yl}-3-(3-bromophenyl)urea]: 480 nM.

The compound `CC(C)(C)c1cc(NC(=O)Nc2cccc(Cl)c2)n(-c2cccc(CCN)c2)n1` [Example 378, 1-{1-[3-(2-aminoethyl)phenyl]-3-t-butyl-1H-pyrazol-5-yl}-3-(3-chlorophenyl)urea] displayed an IC50 of 400 nM. Same read-out and setting: the value for `CC(C)(C)c1cc(NC(=O)Nc2cccc(C(F)(F)F)c2)n(-c2cccc(CCN)c2)n1` [Example 380, 1-{1-[3-(2-aminoethyl)phenyl]-3-t-butyl-1H-pyrazol-5-yl}-3-[3-(trifluoromethyl)phenyl]urea] was 2000 nM; that for `COc1cccc(NC(=O)Nc2cc(C(C)(C)C)nn2-c2cccc(CCN)c2)c1` [Example 382, 1-{1-[3-(2-aminoethyl)phenyl]-3-t-butyl-1H-pyrazol-5-yl}-3-(3-methoxyphenyl)urea] was 880 nM. `CN(C)CCc1cccc(-n2nc(C(C)(C)C)cc2NC(=O)Nc2cccc(Cl)c2Cl)c1` [Example 383, 1-(3-t-butyl-1-{3-[2-(dimethylamino)ethyl]phenyl}-1H-pyrazol-5-yl)-3-(2,3-di-chlorophenyl)urea] showed an IC50 of 100 nM.

`CC(C)(C)c1cc(NC(=O)Nc2cccc(Br)c2)n(-c2cccc(CN)c2)n1` [Example 384, 1-{1-[3-(aminomethyl)phenyl]-3-t-butyl-1H-pyrazol-5-yl}-3-(3-bromophenyl)urea]: the inhibition at 1 µM was 72% and the inhibition at 10 µM is 96%. `CC(C)(C)c1cc(NC(=O)Nc2cccc(Cl)c2)n(-c2cccc(C#N)c2)n1` [Example 385, 1-(3-t-butyl-1-(3-cyanophenyl)-1H-pyrazol-5-yl)-3-(3-chlorophenyl)urea] yielded an IC50 of 30 nM. This counts as double-digit nanomolar. On the same count and under the same terms, the value for `CC(C)(C)c1cc(NC(=O)Nc2cccc(Cl)c2)n(-c2cccc(CN)c2)n1` [Example 386, 1-{1-[3-(aminomethyl)phenyl]-3-t-butyl-1H-pyrazol-5-yl}-3-(3-chloro-phenyl)urea] was 114 nM; that for `CC(C)(C)c1cc(NC(=O)Nc2cccc(C(F)(F)F)c2)n(-c2cccc(CN)c2)n1` [Example 387, 1-{1-[3-(aminomethyl)phenyl]-3-t-butyl-1H-pyrazol-5-yl}-3-(3-(trifluoro-methyl)phenyl)urea] was 4450 nM. For `COc1cccc(NC(=O)Nc2cc(C(C)(C)C)nn2-c2cccc(CN)c2)c1` [Example 388, 1-{1-[3-(aminomethyl)phenyl]-3-t-butyl-1H-pyrazol-5-yl}-3-(3-methoxy-phenyl)urea], the IC50 amounted to 1650 nM. Take `CC(C)(C)c1cc(NC(=O)Nc2ccc(Cl)cc2)n(-c2cccc(CN)c2)n1` [Example 390, 1-{1-[3-(aminomethyl)phenyl]-3-t-butyl-1H-pyrazol-5-yl}-3-(4-chloro-phenyl)urea]: the inhibition at 0.1 µM came to 24% and the inhibition at 1 µM turned out to be 63%. As for `CC(C)(C)c1cc(NC(=O)Nc2ccc3c(c2)OCO3)n(-c2cccc(CN)c2)n1` [Example 391, 1-{1-[3-(aminomethyl)phenyl]-3-t-butyl-1H-pyrazol-5-yl}-3-(benzo-[d][1,3]dioxol-5-yl)urea], the IC50 is 910 nM. On to `CC(C)(C)c1cc(NC(=O)Nc2cccc(Cl)c2Cl)n(-c2cccc(C(N)=O)c2)n1` [Example 392, 1-[3-t-butyl-1-(3-carbamoylphenyl)-1H-pyrazol-5-yl]-3-(2,3-dichlorophenyl)urea], for which the inhibition at 0.1 µM was 75% and the inhibition at 1 µM turned out to be 86%.

The compound `CC(C)(C)c1cc(NC(=O)Nc2ccc(Cl)cc2)n(-c2cccc(C(N)=O)c2)n1` [Example 393, 1-[3-t-butyl-1-(3-carbamoylphenyl)-1H-pyrazol-5-yl]-3-(4-chlorophenyl)urea] registered an IC50 of 400 nM.

`CC(C)(C)c1cc(NC(=O)Nc2cccc(F)c2F)n(-c2cccc(CO)c2)n1` [Example 395, 1-{3-t-butyl-1-[3-(hydroxymethyl)phenyl]-1H-pyrazol-5-yl}-3-(2,3-difluorophenyl)urea]: the midpoint of inhibition, the IC50, lay at 56 nM.

In the case of `CCOC(=O)c1cccc(-n2nc(C(C)(C)C)cc2NC(=O)Nc2ccc3c(c2)OCO3)c1` [Example 396, ethyl 3-{5-[3-(benzo[d][1,3]dioxo-5-yl)ureido]-3-t-butyl-1H-pyrazol-1-yl}benzoate], the inhibition at 0.1 µM came out at 3% and the inhibition at 1 µM is 56%. For the compound `CC(C)(C)c1cc(NC(=O)Nc2ccc3c(c2)OCO3)n(-c2cccc(CO)c2)n1` [Example 397, 1-(benzo[d][1,3]dioxol-5-yl)-3-(3-t-butyl-1-(3-(hydroxymethyl)phenyl)-1H -pyrazol-5-yl)urea], 40 nM corresponded to half-maximal inhibition (IC50). This lies in the double-digit nanomolar range. As to `CCOC(=O)Cc1cccc(-n2nc(C(C)(C)C)cc2NC(=O)Nc2ccc3c(c2)OCO3)c1` [Example 399, ethyl 2-(3-{5-[3-(benzo[d][1,3]dioxol-5-yl)ureido]-3-t-butyl-1H-pyrazol-1-yl}phenyl)-acetate], the inhibition at 0.1 µM stood at 21% and the inhibition at 1 µM was determined as 74%. As for `CC(C)(C)c1cc(NC(=O)Nc2ccc3c(c2)OCO3)n(-c2cccc(CCN)c2)n1` [Example 404, 1-{1-[3-(2-aminoethyl)phenyl]-3-t-butyl-1H-pyrazol-5-yl}-3-(benzo[d][1,3]dioxol-5-yl)urea], the inhibition at 0.1 µM was -11% and the inhibition at 1 µM came out at 48%.

With `CC(C)(C)c1cc(NC(=O)Nc2cccc(Cl)c2)n(-c2cccc(CO)c2)n1` [Example 406], the IC50 amounted to 13.4 nM. Still for that read-out and setting: the same measure for `CC(C)(C)c1cc(NC(=O)Nc2cccc(Br)c2)n(-c2cccc(CO)c2)n1` [Example 407, 1-{3-t-butyl-1-[3-(hydroxymethyl)phenyl]-1H-pyrazol-5-yl}-3-(3-bromophenyl)urea]: 10.3 nM; for `CC(C)(C)c1cc(NC(=O)Nc2cccc(C(F)(F)F)c2)n(-c2cccc(CO)c2)n1` [Example 408, 1-{3-t-butyl-1-[3-(hydroxymethyl)phenyl]-1H-pyrazol-5-yl}-3-(3-(trifluoromethyl)phenyl)urea]: 116 nM. Still for that read-out and setting: the value for `COc1cccc(NC(=O)Nc2cc(C(C)(C)C)nn2-c2cccc(CO)c2)c1` [Example 409, 1-{3-t-butyl-1-[3-(hydroxymethyl)phenyl]-1H-pyrazol-5-yl}-3-(3-methoxyphenyl)urea] was 30.9 nM. With `COc1ccc(-n2nc(C(C)(C)C)cc2NC(=O)Nc2cccc(F)c2F)cc1` [Example 415, 1-[3-t-butyl-1-(4-methoxyphenyl)-1H-pyrazol-5-yl]-3-(2,3-difluorophenyl)urea], the inhibition at 0.1 µM was 28% and the inhibition at 1 µM worked out at 69%. The matching figures for `CCOC(=O)CCc1cccc(-n2nc(C(C)C)cc2NC(=O)Nc2ccc(Cl)cc2)c1` [Example 416, ethyl 3-(3-(5-(3-(4-chlorophenyl)ureido)-3-isopropyl-1H-pyrazol-1-yl)phenyl)propanoate]: 67% and 83%.

With `CC(C)(C)c1cc(NC(=O)Nc2cccc(F)c2F)n(-c2ccc(CO)cc2)n1` [Example 418, 1-{3-t-butyl-1-[4-(hydroxymethyl)phenyl]-1H-pyrazol-5-yl}-3-(2,3-difluoro-phenyl)urea], the midpoint of inhibition, the IC50, lay at 75 nM. This lies in the double-digit nanomolar range. For the compound `CCOC(=O)Cc1ccc(-n2nc(C(C)(C)C)cc2NC(=O)Nc2ccc(Cl)cc2)cc1` [Example 420, ethyl 2-(4-{3-t-butyl-5-[3-(4-chlorophenyl)ureido]-1H-pyrazol-1-yl}phenyl)acetate], the IC50 came to 14.7 nM.
